“And” between values parts separate entries of the source, which are not always exact repeats. Equal values may be shown once. “Also recorded” adds a separate entry of the source. Marks after values point to notes of the source that are not given here.
System: mouse model of cutaneous injury
Test: Wound healing in skin, mouse model of cutaneous injury (skin punch)
Format: in vivo
Details: for CT50 (Days), wound half-closure time, Mean: linear regression
Method: Test substance ON 01210.Na Solution was evaluated for possible effects on wound healing in a mouse model of cutaneous injury. The test substance was administered subcutaneously (SC) in two dosing regimens: the first was 24 hours and 15 minutes before skin punch, and the second was 4 hours and 15 minutes before skin punch. Percent closure of the wound (%) was determined on days 1, 3, 5, 7, 9, 11, 13, 15, 17, 19, 21 and 22, and the half closure time (CT50) was then obtained. One-way ANOVA followed by Dunnett's test was used to determine significant difference between vehicle control and treated groups at individual time points. Significant differences are considered at P<0.05 level.
ON 01210.Na Solution was provided by Onconova Therapeutics Inc in a preformulated form. Test substance was administered subcutaneously (SC) in two dosing patterns, the first was 24 hours and 15 minutes before skin punch, and the second was 4 hours and 15 minutes before skin punch. The dosing time of vehicle (ON 01210.Na Placebo Solution) was given as the second pattern. The dosing volume was 10 mL/kg.
Animals: Male ICR mice weighing 24±2 g were provided by BioLasco Taiwan (under Charles River Laboratories Technology Licensee). Test animals were housed individually in a cage (29×18×13 cm) after skin injury through experiment. All animals were maintained in a controlled temperature (21-23° C.) and humidity (50%-70%) environment with 12 hours light/dark cycles for at least three days in MDS Pharma Services—Taiwan Laboratory prior to use. Free access to standard lab chow for Mice [MF-18 (Oriental Yeast Co., Ltd., Japan)] and reverse osmosis (RO) water was granted. All aspects of this work including housing, experimentation and disposal of animals were performed in general accordance with the Guide for the Care and Use of Laboratory Animals (National Academy Press, Washington, D.C., 1996).
Groups of 8 ICR male mice weighing 24±2 g were used. During the study, the tested animals were housed in individual cages. Under hexobarbital (90 mg/kg, IP) anesthesia, the shoulder and back region of each animal was shaved. A sharp punch (ID 12 mm) was applied to remove the skin including panniculus carnosus and adherent tissues. Test substance was administered subcutaneously in two dosing patterns, the first was 24 hours and 15 minutes before skin punch, and the second was 4 hours and 15 minutes before skin punch the dosing time of vehicle (ON 01210.Na Placebo Solution) was given as the second dosing pattern. The wound area, traced onto clear plastic sheets, was measured by use of an Image—ProPlus (Media Cybernetics, Version 4.5.0.29) on days 1, 3, 5, 7, 9, 11, 13, 15, 17, 19, 21 and 22. The percent closure of the wound (%) was calculated, and wound half-closure time (CT50) was analyzed by linear regression using Graph-Prism (Graph Software USA). One-way ANOVA followed by Dunnett's test was applied for comparison between the treated and vehicle groups at each measurement time point. Differences are considered statistically significant at P<0.05.
Test substance was administered subcutaneously (SC) in two dosing patterns, the first was 24 hours and 15 minutes before skin punch, and the second was 4 hours and 15 minutes before skin punch; the dosing time of vehicle (ON 01210.Na Placebo Solution) was given as the second pattern. The wound closure (%) and wound half-closure time (CT50) were determined. One-way ANOVA followed by Dunnett's test was applied for comparison between the treated and vehicle groups. *P<0.05, vs. vehicle control.

[1] = 500 mg/kg × 2 SC (−4 hr, −15 min), individual surviving mice N 1-6, sodium salt
[2] = 500 mg/kg × 2 SC (−4 hr, −15 min), individual surviving mice N 1-6
[3] = 500 mg/kg × 2 SC (−4 hr, −15 min before skin punch), mean of surviving animals, sodium salt
[4] = 500 mg/kg × 2 SC (−4 hr, −15 min before skin punch), mean of surviving animals
[5] = 500 mg/kg × 2 SC (−24 hr, −15 min), individual mice N 1-8
[6] = 500 mg/kg × 2 SC (−24 hr, −15 min), individual mice N 1-8, sodium salt
[7] = 500 mg/kg × 2 SC (−24 hr, −15 min before skin punch), group mean
[8] = 500 mg/kg × 2 SC (−24 hr, −15 min before skin punch), group mean, sodium salt

With O=C([O-])c1ccc(/C=C/S(=O)(=O)Cc2ccc(Cl)cc2)cc1.[Na+] [ON 01210.Na Solution, (E)-4-carboxystyryl-4-chlorobenzylsulfone sodium salt] the “Effect on wound closure vs vehicle control” value (500 mg/kg SC, 4 hr and 15 min before skin punch, surviving animals, P<0.05 vs vehicle) was “significant increase in wound closure on days 13 and 15”, the “Effect on wound closure / wound healing vs vehicle control” value (500 mg/kg SC, 24 hours and 15 minutes before skin punch, P<0.05 vs vehicle, sodium salt) was “promoted significant increase in wound closure on days 3, 5, 7, 13, 15 and 17; also recorded: promoted wound healing with significant reduction in CT50 value” and the “The Closure of Wound (%), Individual Value, Day 1” value (500 mg/kg × 2 SC (−4 hr, −15 min), individual mice N 1-8) was 0.0%. The “The Closure of Wound (%), Individual Value, Day 3” value [1] was 27.9% and 13.0% and 31.4% and 13.4% and 40.5% and 11.7%, the “The Closure of Wound (%), Individual Value, Day 5” value [1] was 40.2% and 23.3% and 37.2% and 24.9% and 48.5% and 18.4% and the “The Closure of Wound (%), Individual Value, Day 7” value [1] was 48.0% and 32.9% and 41.9% and 36.2% and 62.4% and 34.6%. For the same compound, the “The Closure of Wound (%), Individual Value, Day 9” value [1] was 59.0% and 49.2% and 60.3% and 52.9% and 76.3% and 43.0%, the “The Closure of Wound (%), Individual Value, Day 11” value [1] was 65.3% and 68.7% and 73.5% and 77.1% and 79.6% and 66.1% and the “The Closure of Wound (%), Individual Value, Day 13” value [1] was 84.2% and 90.4% and 90.3% and 78.8% and 93.1% and 88.0%. For the same compound, the “The Closure of Wound (%), Individual Value, Day 15” value [1] was 93.4% and 94.6% and 97.2% and 100.0% (2×) and 97.6%, the “The Closure of Wound (%), Individual Value, Day 17” value [1] was 96.7% and 100.0% (5×) and the “The Closure of Wound (%), Individual Value, Day 19” value [2] was 100.0%. The “The Closure of Wound (%), Individual Value, Day 21” value [2] was 100.0%, the “The Closure of Wound (%), Individual Value, Day 22” value [2] was 100.0% and the “CT50 (Days), Individual Value” [1] was 8.0 days and 9.2 days and 7.7 days and 8.9 days and 5.8 days and 9.4 days. For the same compound, the “Animal died (entry in individual wound-closure tables)” value (500 mg/kg × 2 SC (−4 hr, −15 min), mice N 7 and 8, Days 3-22, sodium salt) was “died and Died”, the “The Closure of Wound (%) Day 1, Mean” value (500 mg/kg × 2 SC (−4 hr, −15 min before skin punch), group mean) was 0.0% and the “The Closure of Wound (%) Day 3, Mean” value [3] was 23.0%. The “The Closure of Wound (%) Day 5, Mean” value [4] was 32.1%, the “The Closure of Wound (%) Day 7, Mean” value [4] was 42.7% and the “The Closure of Wound (%) Day 9, Mean” value [4] was 56.8%. The “The Closure of Wound (%) Day 11, Mean” value [4] was 71.7%, the “The Closure of Wound (%) Day 13, Mean” value [3] was 87.5% and the “The Closure of Wound (%) Day 15, Mean” value [3] was 97.1%. For the same compound, the “The Closure of Wound (%) Day 17, Mean” value [4] was 99.4%, the “The Closure of Wound (%) Day 19, Mean” value [4] was 100.0% and the “The Closure of Wound (%) Day 21, Mean” value [4] was 100.0%. For the same compound, the “The Closure of Wound (%) Day 22, Mean” value [4] was 100.0%, the “CT50 (Days), wound half-closure time, Mean” value [3] was 8.2 ± 0.5 days and 8.2 days and the “The Closure of Wound (%), Individual Value, Day 1” value [5] was 0.0%. The “The Closure of Wound (%), Individual Value, Day 3” value [6] was 36.8% and 15.2% and 28.2% and 23.1% and 21.6% and 42.8% and 29.4% and 41.1%, the “The Closure of Wound (%), Individual Value, Day 5” value [6] was 51.5% and 35.7% and 39.1% and 45.1% and 37.7% and 35.6% and 40.9% and 44.4% and the “The Closure of Wound (%), Individual Value, Day 7” value [6] was 49.7% and 47.0% and 45.6% and 56.9% and 46.8% and 60.4% and 52.0% and 55.8%. The “The Closure of Wound (%), Individual Value, Day 9” value [6] was 74.1% and 60.1% and 54.4% and 63.6% and 54.1% and 79.4% and 64.0% and 69.1%, the “The Closure of Wound (%), Individual Value, Day 11” value [6] was 79.5% and 81.7% and 70.4% and 76.3% and 64.4% and 84.4% and 71.4% and 80.8% and the “The Closure of Wound (%), Individual Value, Day 13” value [6] was 84.4% and 90.6% and 83.7% and 89.6% and 85.8% and 95.8% and 80.7% and 95.6%. The “The Closure of Wound (%), Individual Value, Day 15” value [6] was 89.8% and 100.0% (5×) and 97.6% and 88.8%, the “The Closure of Wound (%), Individual Value, Day 17” value [5] was 100.0% and the “The Closure of Wound (%), Individual Value, Day 19” value [5] was 100.0%. The “The Closure of Wound (%), Individual Value, Day 21” value [5] was 100.0%, the “The Closure of Wound (%), Individual Value, Day 22” value [6] was 100% (2×) and 100.0% (6×) and the “CT50 (Days), Individual Value” [6] was 6.6 Days and 8.0 Days (2×) and 7.2 Days and 8.3 Days and 6.0 Days and 7.6 Days and 6.2 Days. For the same compound, the “The Closure of Wound (%) Day 1, Mean” value [7] was 0.0%, the “The Closure of Wound (%) Day 3, Mean” value [8] was 29.8% and the “The Closure of Wound (%) Day 5, Mean” value [8] was 41.3%. For the same compound, the “The Closure of Wound (%) Day 7, Mean” value [8] was 51.8%, the “The Closure of Wound (%) Day 9, Mean” value [7] was 64.8% and the “The Closure of Wound (%) Day 11, Mean” value [7] was 76.1%. For the same compound, the “The Closure of Wound (%) Day 13, Mean” value [8] was 88.3%, the “The Closure of Wound (%) Day 15, Mean” value [8] was 97.0% and the “The Closure of Wound (%) Day 17, Mean” value [8] was 100.0%. For the same compound, the “The Closure of Wound (%) Day 19, Mean” value [7] was 100.0%, the “The Closure of Wound (%) Day 21, Mean” value [7] was 100.0% and the “The Closure of Wound (%) Day 22, Mean” value [7] was 100.0%. The “CT50 (Days), wound half-closure time, Mean” value [8] was 7.2 ± 0.3 days and 7.2 days, the “Animals died (mortality)” value (500 mg/kg × 2 SC given 4 hr and 15 min before skin punch (interval 3 hr 45 min), mice, cause of death not known, sodium salt) was “two out of eight animals died; also recorded: (2/8 died)” and the “Wound healing, percentage of wound closure (FIG. 1)” value (pre-treated 24 hour or 4 hour prior to wound vs placebo) was “significant improvement in wound healing”.
